# Test system: 565726-208-R1-J5-PDC complex spheroids, growth inhibition
# Test: Anticancer human tumor 565726-208-R1-J5-PDC patient-derived pancreatic adenocarcinoma cell line growth inhibition [RAS]
# Conditions: for IC50: curve of first compound; for viability, T/C: stronger effect = lower value
# Outline: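 Multi-cell-type spheroids: tumor cells plus HUVEC endothelial cells and mesenchymal stem cells. RAS-pathway inhibitors were combined with targeted agents, each dosed in half-log steps down from clinical Cmax, or from 10 microM when Cmax was unknown.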
# [1] = second compound 0.000949 µM, first compound 0.0316 µM
# [2] = second compound 0.000949 µM, first compound 0.1 µM
# [3] = second compound 0.000949 µM, first compound 0.316 µM
# [4] = second compound 0.000949 µM, first compound 1 µM
# [5] = second compound 0.000949 µM, first compound 3.16 µM
# [6] = second compound 0.000949 µM, first compound 10 µM
# [7] = second compound 0.003 µM, first compound 0.0316 µM
# [8] = second compound 0.003 µM, first compound 0.1 µM
# [9] = second compound 0.003 µM, first compound 0.316 µM
# [10] = second compound 0.003 µM, first compound 1 µM
# [11] = second compound 0.003 µM, first compound 3.16 µM
# [12] = second compound 0.003 µM, first compound 10 µM
# [13] = second compound 0.00949 µM, first compound 0.0316 µM
# [14] = second compound 0.00949 µM, first compound 0.1 µM
# [15] = second compound 0.00949 µM, first compound 0.316 µM
# [16] = second compound 0.00949 µM, first compound 1 µM
# [17] = second compound 0.00949 µM, first compound 3.16 µM
# [18] = second compound 0.00949 µM, first compound 10 µM
# [19] = second compound 0.03 µM, first compound 0.0316 µM
# [20] = second compound 0.03 µM, first compound 0.1 µM
# [21] = second compound 0.03 µM, first compound 0.316 µM
# [22] = second compound 0.03 µM, first compound 1 µM
# [23] = second compound 0.03 µM, first compound 3.16 µM
# [24] = second compound 0.03 µM, first compound 10 µM
# [25] = second compound 0.0949 µM, first compound 0.0316 µM
# [26] = second compound 0.0949 µM, first compound 0.1 µM
# [27] = second compound 0.0949 µM, first compound 0.316 µM
# [28] = second compound 0.0949 µM, first compound 1 µM
# [29] = second compound 0.0949 µM, first compound 3.16 µM
# [30] = second compound 0.0949 µM, first compound 10 µM
# [31] = second compound 0.3 µM, first compound 0.0316 µM
# [32] = second compound 0.3 µM, first compound 0.1 µM
# [33] = second compound 0.3 µM, first compound 0.316 µM
# [34] = second compound 0.3 µM, first compound 1 µM
# [35] = second compound 0.3 µM, first compound 3.16 µM
# [36] = second compound 0.3 µM, first compound 10 µM
# 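Further: spheroids exposed to compounds for seven days before readout.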
# 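Wherever viability, T/C is given: 100% = DMSO vehicle control viability.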
smiles,measurement,setting,value
CC(C)NCC(C(=O)N1CCN(c2ncnc3c2C(C)CC3O)CC1)c1ccc(Cl)cc1 (stereo not drawn) + CCn1c(-c2cccnc2C(C)OC)c2c3cc(ccc31)N1CCOC(CC(NC(=O)C(C(C)C)N(C)C(=O)C3(F)CCN(C(=O)C#CC(C)(C)N(C)C)CC3)C(=O)N3CCCC(N3)C(=O)OCC(C)(C)C2)C1,IC50,second compound 0.000949 µM,> 10 µM
same,IC50,second compound 0.003 µM,> 10 µM
same,IC50,second compound 0.00949 µM,> 10 µM
same,IC50,second compound 0.03 µM,> 10 µM
same,IC50,second compound 0.0949 µM,> 10 µM
same,IC50,second compound 0.3 µM,7.56 µM
same,"viability, T/C",[1],106%
same,"viability, T/C",[2],94.1%
same,"viability, T/C",[3],97.6%
same,"viability, T/C",[4],85.1%
same,"viability, T/C",[5],74%
same,"viability, T/C",[6],56.6%
same,"viability, T/C",[7],105%
same,"viability, T/C",[8],99.2%
same,"viability, T/C",[9],105%
same,"viability, T/C",[10],94.7%
same,"viability, T/C",[11],84.2%
same,"viability, T/C",[12],59.4%
same,"viability, T/C",[13],96%
same,"viability, T/C",[14],104%
same,"viability, T/C",[15],94.3%
same,"viability, T/C",[16],99.8%
same,"viability, T/C",[17],88.1%
same,"viability, T/C",[18],57.1%
same,"viability, T/C",[19],101%
same,"viability, T/C",[20],95.5%
same,"viability, T/C",[21],106%
same,"viability, T/C",[22],89.4%
same,"viability, T/C",[23],84.4%
same,"viability, T/C",[24],56.5%
same,"viability, T/C",[25],93.5%
same,"viability, T/C",[26],98.8%
same,"viability, T/C",[27],96.9%
same,"viability, T/C",[28],86.5%
same,"viability, T/C",[29],85.5%
same,"viability, T/C",[30],57.7%
same,"viability, T/C",[31],95.2%
same,"viability, T/C",[32],87%
same,"viability, T/C",[33],85.8%
same,"viability, T/C",[34],80.8%
same,"viability, T/C",[35],70.7%
same,"viability, T/C",[36],43.2%
CC(C)n1nc(-c2ccc3oc(N)nc3c2)c2c(N)ncnc21 + CCn1c(-c2cccnc2C(C)OC)c2c3cc(ccc31)N1CCOC(CC(NC(=O)C(C(C)C)N(C)C(=O)C3(F)CCN(C(=O)C#CC(C)(C)N(C)C)CC3)C(=O)N3CCCC(N3)C(=O)OCC(C)(C)C2)C1,IC50,second compound 0.000949 µM,0.0192 µM
same,IC50,second compound 0.003 µM,0.0268 µM
same,IC50,second compound 0.00949 µM,0.0245 µM
same,IC50,second compound 0.03 µM,0.0231 µM
same,IC50,second compound 0.0949 µM,0.0188 µM
same,IC50,second compound 0.3 µM,0.013 µM
same,"viability, T/C","second compound 0.000949 µM, first compound 0.000316 µM",95.6%
same,"viability, T/C","second compound 0.000949 µM, first compound 0.001 µM",91.2%
same,"viability, T/C","second compound 0.000949 µM, first compound 0.00316 µM",91.5%
same,"viability, T/C","second compound 0.000949 µM, first compound 0.01 µM",59.8%
same,"viability, T/C",[1],43.4%
same,"viability, T/C",[2],27.5%
same,"viability, T/C","second compound 0.003 µM, first compound 0.000316 µM",101%
same,"viability, T/C","second compound 0.003 µM, first compound 0.001 µM",90.5%
same,"viability, T/C","second compound 0.003 µM, first compound 0.00316 µM",85.2%
same,"viability, T/C","second compound 0.003 µM, first compound 0.01 µM",67.1%
same,"viability, T/C",[7],46.5%
same,"viability, T/C",[8],28.1%
same,"viability, T/C","second compound 0.00949 µM, first compound 0.000316 µM",103%
same,"viability, T/C","second compound 0.00949 µM, first compound 0.001 µM",93.9%
same,"viability, T/C","second compound 0.00949 µM, first compound 0.00316 µM",86.8%
same,"viability, T/C","second compound 0.00949 µM, first compound 0.01 µM",69.8%
same,"viability, T/C",[13],43.2%
same,"viability, T/C",[14],26.9%
same,"viability, T/C","second compound 0.03 µM, first compound 0.000316 µM",83.2%
same,"viability, T/C","second compound 0.03 µM, first compound 0.001 µM",91%
same,"viability, T/C","second compound 0.03 µM, first compound 0.00316 µM",79%
same,"viability, T/C","second compound 0.03 µM, first compound 0.01 µM",68.8%
same,"viability, T/C",[19],43%
same,"viability, T/C",[20],26.7%
same,"viability, T/C","second compound 0.0949 µM, first compound 0.000316 µM",93%
same,"viability, T/C","second compound 0.0949 µM, first compound 0.001 µM",92.1%
same,"viability, T/C","second compound 0.0949 µM, first compound 0.00316 µM",82.5%
same,"viability, T/C","second compound 0.0949 µM, first compound 0.01 µM",62.1%
same,"viability, T/C",[25],40.2%
same,"viability, T/C",[26],25.1%
same,"viability, T/C","second compound 0.3 µM, first compound 0.000316 µM",89.3%
same,"viability, T/C","second compound 0.3 µM, first compound 0.001 µM",85.1%
same,"viability, T/C","second compound 0.3 µM, first compound 0.00316 µM",75.2%
same,"viability, T/C","second compound 0.3 µM, first compound 0.01 µM",54.8%
same,"viability, T/C",[31],33.8%
same,"viability, T/C",[32],24%
CC(Nc1ccc2c(c1)OCCn1cc(N3C(=O)OCC3C(F)F)nc1-2)C(N)=O (stereo not drawn) + CCn1c(-c2cccnc2C(C)OC)c2c3cc(ccc31)N1CCOC(CC(NC(=O)C(C(C)C)N(C)C(=O)C3(F)CCN(C(=O)C#CC(C)(C)N(C)C)CC3)C(=O)N3CCCC(N3)C(=O)OCC(C)(C)C2)C1,IC50,second compound 0.000949 µM,> 10 µM
same,IC50,second compound 0.003 µM,> 10 µM
same,IC50,second compound 0.00949 µM,8.98 µM
same,IC50,second compound 0.03 µM,8.76 µM
same,IC50,second compound 0.0949 µM,7.05 µM
same,IC50,second compound 0.3 µM,2.39 µM
same,"viability, T/C",[1],87.5%
same,"viability, T/C",[2],80.8%
same,"viability, T/C",[3],77.3%
same,"viability, T/C",[4],72.8%
same,"viability, T/C",[5],64.8%
same,"viability, T/C",[6],50.7%
same,"viability, T/C",[7],93.7%
same,"viability, T/C",[8],88.4%
same,"viability, T/C",[9],75%
same,"viability, T/C",[10],75.9%
same,"viability, T/C",[11],62.9%
same,"viability, T/C",[12],52.9%
same,"viability, T/C",[13],92.3%
same,"viability, T/C",[14],91.2%
same,"viability, T/C",[15],77.8%
same,"viability, T/C",[16],77.6%
same,"viability, T/C",[17],63.7%
same,"viability, T/C",[18],47.7%
same,"viability, T/C",[19],93%
same,"viability, T/C",[20],85.6%
same,"viability, T/C",[21],80.4%
same,"viability, T/C",[22],71.1%
same,"viability, T/C",[23],55.2%
same,"viability, T/C",[24],49.9%
same,"viability, T/C",[25],88.8%
same,"viability, T/C",[26],82.4%
same,"viability, T/C",[27],84.4%
same,"viability, T/C",[28],65.9%
same,"viability, T/C",[29],63%
same,"viability, T/C",[30],44.8%
same,"viability, T/C",[31],80%
same,"viability, T/C",[32],72.8%
same,"viability, T/C",[33],72%
same,"viability, T/C",[34],63.7%
same,"viability, T/C",[35],44.9%
same,"viability, T/C",[36],38.2%
C[C@@H](NC(=O)c1ncnc(N)c1Cl)c1ncc(C(=O)Nc2cc(C(F)(F)F)c(Cl)cn2)s1 + CCn1c(-c2cccnc2C(C)OC)c2c3cc(ccc31)N1CCOC(CC(NC(=O)C(C(C)C)N(C)C(=O)C3(F)CCN(C(=O)C#CC(C)(C)N(C)C)CC3)C(=O)N3CCCC(N3)C(=O)OCC(C)(C)C2)C1,IC50,second compound 0.000949 µM,> 10 µM
same,IC50,second compound 0.003 µM,> 10 µM
same,IC50,second compound 0.00949 µM,> 10 µM
same,IC50,second compound 0.03 µM,> 10 µM
same,IC50,second compound 0.0949 µM,> 10 µM
same,IC50,second compound 0.3 µM,> 10 µM
same,"viability, T/C",[1],111%
same,"viability, T/C",[2],109%
same,"viability, T/C",[3],113%
same,"viability, T/C",[4],103%
same,"viability, T/C",[5],98.1%
same,"viability, T/C",[6],83.3%
same,"viability, T/C",[7],118%
same,"viability, T/C",[8],111%
same,"viability, T/C",[9],107%
same,"viability, T/C",[10],109%
same,"viability, T/C",[11],98%
same,"viability, T/C",[12],79.8%
same,"viability, T/C",[13],108%
same,"viability, T/C",[14],107%
same,"viability, T/C",[15],104%
same,"viability, T/C",[16],114%
same,"viability, T/C",[17],105%
same,"viability, T/C",[18],82.2%
same,"viability, T/C",[19],102%
same,"viability, T/C",[20],110%
same,"viability, T/C",[21],112%
same,"viability, T/C",[22],112%
same,"viability, T/C",[23],105%
same,"viability, T/C",[24],80.9%
same,"viability, T/C",[25],108%
same,"viability, T/C",[26],101%
same,"viability, T/C",[27],99.7%
same,"viability, T/C",[28],108%
same,"viability, T/C",[29],90.1%
same,"viability, T/C",[30],90.6%
same,"viability, T/C",[31],91.3%
same,"viability, T/C",[32],98.7%
same,"viability, T/C",[33],95%
same,"viability, T/C",[34],107%
same,"viability, T/C",[35],90%
same,"viability, T/C",[36],77.5%

# Source: PubChem BioAssay AID2060899 (Molecular Pharmacology Branch, DTP, NCI, 2025)
